# Data as given in patent US20240245721A1, “DOUBLE SIDED CHIMERIC ANTIGEN RECEPTOR (CAR) ENGINEERED CELL MEMBRANE BASED DRUG DELIVERY SYSTEMS” (BOARD OF REGENTS, THE UNIVERSITY OF TEXAS SYSTEM, priority 2021, published 2024).
# Read-outs that look alike come from different tables or passages of the source.
# How the values were obtained:
# [1] = test system: A549 cells; assay: In vitro cytotoxicity (MTT) on A549; assay type: cell-based; settings: Homo sapiens, afatinib: 48 hour exposure, read-out: IC50 (half maximal inhibitory concentration)
# Experimental: (§1) A549, MDA-MB-231 and SKOV-3 cells were seeded (5×10^3 cells/well) in 96-well plates and incubated overnight. Free Afatinib, Afatinib loaded PLGA NPs, anti HER-2 PLGA NPs, Jurkat-T-MNPs, and CAR-T-MNPs were added to the seeded cells (n=4). Alternatively, free cisplatin, cisplatin loaded PLGA NPs, Jurkat-T-MNPs, and CAR-T-MNPs were added to the seeded cells (n=4) at a cisplatin concentration of 7 μM (A549) & 3.5 μM (SKOV-3). After incubation for 48 hours, the absorbance at 490 nm was measured using UV-VIS Spectrophotometer (Tecan) after incubating with MTT reagent (Promega) for one hour. Cell viabilities were calculated via normalizing to the control group (cells exposed to complete media, 100% viability).
# [2] = test system: SKOV-3 cells; assay: In vitro cytotoxicity (MTT) on SKOV-3; assay type: cell-based; settings: read-out: IC50 (half maximal inhibitory concentration)
# Experimental: as §1
# [3] = test system: MDA-MB-231 cells; assay: In vitro cytotoxicity (MTT) on MDA-MB-231; assay type: cell-based; settings: Homo sapiens; MDA-MB-231, 48 hour exposure
# Experimental: as §1
# [4] = test system: subcutaneous A549 tumor implanted in nude mice; assay: In vivo therapeutic efficiency (tumor delay, survival, weight, H&E histology); settings: 2-week post treatment, single IV dose, cisplatin 3 mg/kg
# Experimental: Nude mice (NU/J) aged 5-6 weeks were purchased from Jacksons Laboratory. Briefly, 2×10^6 A549 cells in 200 μL of Matrigel (Corning, NY) were injected subcutaneously in athymic nude mice. Tumor volumes were checked at regular intervals of 3 days and treatment started when the volume reached ˜300 mm3. Tumor volumes were measured using a standard Vernier Calipers. All procedures involving experimental animals were performed in accordance with the protocols approved by the University of Texas at Arlington Institutional Animal Care and Use Committee.
# Xenograft tumors as described above were used to evaluate the therapeutic efficiency of CAR-T-MNPs. After the tumor reached ˜300 mm3, the mice were randomly distributed into 4 groups (n=3) for different treatment groups. Prior to treatment, all mice were ear-tagged, the initial tumor volumes were measured by a caliper, and the body weights were recorded. The treatment groups received a single tail-vein IV administration of either of 200 μL of saline (control), free drug, Jurkat-T-MNPs or CAR-T-MNPs. Tumor volume was measured every 2-3 days via a caliper. Tumor volumes were calculated by measuring the tumor perpendicular diameters with a caliper and calculated using the formula V=½×a×b2, where a and b are the longest diameter and its longest perpendicular diameter, respectively. […]
SMILES,IC50 [1] [µM],"IC50 ([2]; Homo sapiens, SK-OV-3, afatinib: 48 hour exposure) [µM]",IC50 [3] [µM],IC50 ([2]; afatinib: 48 hour exposure) [µM],tumor volume [4]
"CN(C)C/C=C/C(=O)Nc1cc2c(Nc3ccc(F)c(Cl)c3)ncnc2cc1O[C@H]1CCOC1 [afatinib, Afatinib]",~4.3,~1.4,~3.7,,
"N.N.[Cl][Pt][Cl] [cisplatin, Cisplatin]",,,,4,increasing trend
